Laboratory results reported in article PMC2713172 (Biochemistry, 2008).

Assays:
wild-type CYP2C9 [1] = target: T1, wild-type CYP2C9 (Homo sapiens, UniProt P11712); conditions: WT
wild-type CYP2C9 [2] = target: T1, wild-type CYP2C9
CYP2C9 F114L mutant [3] = target: T2, CYP2C9 F114L mutant (Homo sapiens, UniProt P11712, F114L)
CYP2C9 F114W mutant [4] = target: T3, CYP2C9 F114W mutant (Homo sapiens, UniProt P11712, F114W)
[5] = target: CYP2C9 F114W/F476W double mutant (Homo sapiens, UniProt P11712, F114W/F476W)
CYP2C9 F476L mutant [6] = target: T4, CYP2C9 F476L mutant (Homo sapiens, UniProt P11712, F476L); conditions: F476L
wild-type CYP2C9 [7] = target: T1, wild-type CYP2C9; conditions: wild-type CYP2C9
wild-type CYP2C9 [8] = target: T1, wild-type CYP2C9; remark: listed apart in the source
CYP2C9 F476W mutant [9] = target: T5, CYP2C9 F476W mutant (Homo sapiens, UniProt P11712, F476W)
CYP2C9 F114L mutant [10] = target: T2, CYP2C9 F114L mutant; remark: listed apart in the source
CYP2C9 F114W mutant [11] = target: T3, CYP2C9 F114W mutant; remark: listed apart in the source
CYP2C9 F100L mutant [12] = target: T6, CYP2C9 F100L mutant (Homo sapiens, UniProt P11712, F100L)
CYP2C9 F476W mutant [13] = target: T5, CYP2C9 F476W mutant; remark: listed apart in the source
CYP2C9 F476L mutant [14] = target: T4, CYP2C9 F476L mutant
[15] = target: T7, CYP2C9 F114L/F476L double mutant (Homo sapiens, UniProt P11712, F114L/F476L)
[16] = target: T7, CYP2C9 F114L/F476L double mutant; remark: listed apart in the source
CYP2C9 F100L mutant [17] = target: T6, CYP2C9 F100L mutant; remark: listed apart in the source
CYP2C9 = conditions: structure 1OG5; cited from earlier work
[18] = substrate: CC(=O)C[C@@H](c1ccccc1)c1c(O)c2ccccc2oc1=O; assay: purified protein, by the assay type; conditions: other: WT; substrate hydroxylation; 37.0 °C

## CC(=O)C[C@@H](c1ccccc1)c1c(O)c2ccccc2oc1=O [(S)-warfarin, (S)-Warfarin]
wild-type CYP2C9 [1]
  percent of wild-type kcat/Km: 100%
wild-type CYP2C9 [2]
  distance from the heme to all ring protons: 6–7 Å
  distance from the heme to the acetonyl methyl group: ~ 9 Å
CYP2C9 F114L mutant [3]
  percent of wild-type kcat/Km: 2%
CYP2C9 F114W mutant [4]
  percent of wild-type kcat/Km: 83%
[5]
  ΔAmax (maximum observed difference 390–420 nm): 12 ± 0.2 ×10^−3
[5]; F114W/F476W
  percent of wild-type ΔA/K: 303%
CYP2C9 F476L mutant [6]
  percent of wild-type kcat/Km: 2%
wild-type CYP2C9 [7]
  coupling of hydroxylation to NADPH consumption: ~ 4%
wild-type CYP2C9 [8]
  ΔAmax (maximum observed difference 390–420 nm): 5.3 ± 0.1 ×10^−3
wild-type CYP2C9 [8]; Wild-type
  percent of wild-type ΔA/K: 100%
CYP2C9 F476W mutant [9]
  percent of wild-type kcat/Km: 500%
CYP2C9 F114L mutant [10]
  ΔAmax (maximum observed difference 390–420 nm): 10 ± 0.07 ×10^−3
CYP2C9 F114L mutant [10]; F114L
  percent of wild-type ΔA/K: 139%
CYP2C9 F114W mutant [11]
  ΔAmax (maximum observed difference 390–420 nm): 12 ± 0.3 ×10^−3
CYP2C9 F114W mutant [11]; F114W
  percent of wild-type ΔA/K: 636%
CYP2C9 F100L mutant [12]
  percent of wild-type kcat/Km: 133%
CYP2C9 F476W mutant [13]
  ΔAmax (maximum observed difference 390–420 nm): 9.3 ± 0.1 ×10^−3
CYP2C9 F476W mutant [13]; F476W
  percent of wild-type ΔA/K: 225%
CYP2C9 F476L mutant [14]
  ΔAmax (maximum observed difference 390–420 nm): 11 ± 0.2 ×10^−3
[15]
  ΔAmax (maximum observed difference 390–420 nm): 15 ± 0.3 ×10^−3
[15]; F114L/F476L
  percent of wild-type ΔA/K: 75%
[16]
  percent of wild-type kcat/Km: 0.4%
CYP2C9 F100L mutant [17]
  ΔAmax (maximum observed difference 390–420 nm): 6.5 ± 0.06 ×10^−3
CYP2C9 F100L mutant [17]; F100L
  percent of wild-type ΔA/K: 262%
CYP2C9
  distance above the heme in crystal structure: ~ 10 Å

B1: wild-type CYP2C9 (Homo sapiens) (protein)
chain: MALLLAVFLCLSCLLLLSLWRQSSGRGKLPPGPTPLPVIGNILQIGIKDISKSLTNLSKVYGPVFTLYFGLKPIVVLHGYEAVKEALIDLGEEFSGRGIFPLAERANRGFGIVFSNGKKWKEIRRFSLMTLRNFGMGKRSIEDRVQEEARCLVEELRKTKASPCDPTFILGCAPCNVICSIIFHKRFDYKDQQFLNLMEKLNENIKILSSPWIQICNNFSPIIDYFPGTHNKLLKNVAFMKSYILEKVKEHQESMDMNNPQDFIDCFLMKMEKEKHNQPSEFTIESLENTAVDLFGAGTETTSTTLRYALLLLLKHPEVTAKVQEEIERVIGRNRSPCMQDRSHMPYTDAVVHEVQRYIDLLPTSLPHAVTCDIKFRNYLIPKGTTILISLTSVLHDNKEFPNPEMFDPHHFLDEGGNFKKSKYFMPFSAGKRICVGEALAGMELFLFLTSILQNFNLKSLVDPKNLDTTPVVNGFASVPPFYQLCFIPV
[18]
  Km: 4.1 ± 0.3 µM
  kcat: 0.00417 ± 6.7e-05 s⁻¹
  kcat/Km: 0.06 (100) min^−1 μM^−1
